The target of one assay is TEM-1 (Escherichia coli, UniProt P62593). The class given is biochemical, E. coli. The arrangement: His-tag (N); TEV cleavage site (N); made in house; host or cells: E. coli BL21 (DE3). The conditions noted are these: static light scattering during temperature ramp, inhibitor titration.
In assay [1] the test system is E. coli strain UZ_TEM104. The conditions noted are these: broth microdilution, MHB, overnight 37 °C, peptide alone. An excerpt:
Pept-Ins consist of a tandem repeat of the APR, each instance flanked by charged amino acids for solubility and separated by a short peptide linker[20],[21],[24] (Fig. 3A). Previous work has shown that good bacterial uptake can be achieved using one positively charged arginine residue on the N-terminal side of each APR in the tandem and two arginine residues on the C-terminal side[20],[21]. […] As before, we employed a single Pro residue as a linker between the APRs and focused on an APR length of seven, extending shorter APRs to this length by incorporating flanking amino acids unless they were obvious aggregation breakers (Arg, Lys, Asp, Glu or Pro, see Table 1).
Determination of MIC values was performed using the broth microdilution method according to the EUCAST guideline, which was performed in 96-well polystyrene flat-bottom microtiter plates (BD Biosciences). Briefly, a single colony was inoculated into 5 mL Difco™ Mueller–Hinton Broth (BD Biosciences Ref 275730) and grown to the end-exponential growth phase in a shaking incubator at 37 °C. Cultures were subsequently diluted to a MacFarland (0.5 optical density) to reach 10^6 CFU/mL in fresh MHB medium. 50 µl of different concentrations of peptides ranging from 128 to 2 µg/mL were serially diluted to the sterile 96-well plate in MHB. 50 µL of the diluted bacteria in MHB were next pipetted into 96-well plates to reach the final volume of 100 µL. The bacteria grown with the maximum concentration of carrier and medium were considered positive and negative controls, respectively. The plates were statically incubated overnight at 37 °C to allow bacterial growth. OD was measured at 590 nm using a multipurpose ultraviolet–visible plate reader, and the absorbance of the bacterial growth was measured using an absorbance reader.

Assay [2] concerns E. coli strain UZ_TEM104. The experiment in a line: microbe, parasite or virus in culture. The class given is cell-based, Escherichia coli.
A further assay relates to E. coli SHV11. The experiment in a line: Checkerboard assay (FICI). The class given is cell-based, Escherichia coli. Conditions: strain containing SHV-11, FICI below 0.5 = synergy. As to the method:
(§1) To quantify the synergy between these four peptides and penicillin G, we performed a so-called checkerboard assay, which allows us to compare the activity of two test compounds co-incubated (here peptide and a beta-lactam antibiotic), to their individual activities in isolation. […] We evaluated the synergy of the peptides with penicillin G in clinical E. coli isolates carrying the TEM (Fig. 3D) or SHV enzymes (Fig. 3E). […] The list of strains included some that harbored only TEM or SHV, but others contained additional Ambler Class A (CTX-M or OXA) or Class B (VIM and NDM) beta-lactamases.
For the analysis of synergy between the peptides and other antibiotics, a checkerboard assay was performed. Based on the MICs of the selected peptides, a checkerboard assay was designed to define their FICIs (Fractional Inhibitory Concentration Index) in combinations against different clinical isolates[53],[54]. Briefly, a total volume of 100 μL of Mueller–Hinton broth was distributed into each well of the 96-well plates. […] FICI is calculated as the sum of the individual fractional inhibitory concentrations (FICs) for each drug (where MIC A and MIC B denote the MIC of each drug alone, and MIC AA+B and MIC BA+B denote the concentrations of A and B in the drug combination). […]

Another assay relates to E. coli NDM-5b. Conditions: for FICi values: E. coli NDM-5b; for synergy with penicillin (in words): checkerboard, strain containing NDM5b. The source says: (§2) As we wondered about the generality of our peptide design approach, we set out to design a peptide to inactivate a structurally unrelated beta-lactamase. To this end, we turned to the Ambler class B beta-lactamase NDM-1 that confers resistance to many beta-lactam antibiotics, including carbapenems, and strains carrying this enzyme were soon dubbed ‘superbugs’ that are only partially sensitive to colistin and tigecycline. This enzyme was first isolated from a patient in 2008[41]. By 2010 it could be detected in clinical isolates throughout the UK and India[42], and by 2015, in over 70 countries worldwide.
(§3) For the analysis of synergy between the peptides and other antibiotics, a checkerboard assay was performed. Based on the MICs of the selected peptides, a checkerboard assay was designed to define their FICIs (Fractional Inhibitory Concentration Index) in combinations against different clinical isolates[53],[54]. Briefly, a total volume of 100 μL of Mueller–Hinton broth was distributed into each well of the 96-well plates. The first compound (peptide) of the combination was serially diluted vertically (128, 64, 32, 16, 8, 4, 2, 0 μg/mL) while the other drug (Beta-lactam or Kanamycin) was diluted horizontally in a 96-well plate (from 3200 to 3 μg/ mL). The total volume of each microtiter well was inoculated with 100 μL of MHB containing 1 × 10^6 CFU/mL bacteria. The plates were incubated at 37 °C for 24 h under aerobic conditions without shaking. Calculation of the FICI is used to analyze the results of the checkerboard assay by estimating the degree of synergistic effect. FICI is calculated as the sum of the individual fractional inhibitory concentrations (FICs) for each drug (where MIC A and MIC B denote the MIC of each drug alone, and MIC AA+B and MIC BA+B denote the concentrations of A and B in the drug combination). FICI = (MIC AA+B/MIC A) + (MIC BA+B/MIC B). With FICI ≤ 0.5, the combination of antibiotics is considered as a synergistic effect, 0.5 < FICI ≤ 1 indicates additivity, FICI > 1 indicates indifference.

In the next assay the test system is E. coli NDM-5a. Conditions: for FICi values: E. coli NDM-5a; for synergy with penicillin (in words): checkerboard, strain containing NDM5a.
Text: as §2, §3

Another assay has as its system E. coli TEM104. As to the method: as §1, §3
A further assay concerns E. coli UZ_TEM104. The assay can be described thus: FACS with pFTAA (aggregation) and propidium iodide (cell death). The class given is cell-based, Escherichia coli. The conditions noted are these: 4 h; penicillin G 400 μg/mL and/or TEM3.2 50 μg/mL.
[3] abbreviates: E. coli UZ_TEM104, concentration of additive 50 (mg/mL [sic]).
The mark [4] stands for this setting: in the presence of additive (peptide or tazobactam) at fixed 50 μg/mL.

Converted amounts (≈) assume the structure as drawn. Read-outs that look alike come from different tables or passages of the source. Residues, ends and D or L forms follow the SMILES beside them.

Chain of TEM-1 (P62593 24-286 limits assumed): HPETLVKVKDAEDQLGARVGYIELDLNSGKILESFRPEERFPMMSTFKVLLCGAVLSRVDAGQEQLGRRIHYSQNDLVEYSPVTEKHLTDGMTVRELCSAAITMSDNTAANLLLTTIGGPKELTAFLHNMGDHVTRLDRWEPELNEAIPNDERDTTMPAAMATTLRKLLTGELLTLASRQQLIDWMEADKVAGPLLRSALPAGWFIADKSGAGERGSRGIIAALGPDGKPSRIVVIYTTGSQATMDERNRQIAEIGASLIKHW
Description for E. coli UZ_TEM104: Fig. 6 Uptake and inclusion body formation upon peptide treatment. Fluorescence-activated cell-sorting (FACS) (A) of E. coli strain UZ_TEM104 mixed 50–50% with the same strain after heat-inactivation. The cells were stained with pFTAA to monitor aggregation and propidium iodide (PI) to monitor cell permeabilization associated with cell death. 10^6 cells were analyzed for the plot. […] B Similar FACS analysis as in A, but with a sample of live bacteria only. […] Note: the horizontal and vertical lines correspond to the gatings used to obtain the quantifications shown in the corners of each image.
Treated bacteria were washed with PBS buffer two times. One microliter of PI (Invitrogen) was added to the bacteria and incubated for 5 min. The bacteria were counted by FACS to reach 40000 events. To correlate the activity of the peptides with cell death, the fluorescence intensity was measured in two channels using the Gallios^TM Flow Cytometer (Beckman Coulter, USA), PI: excitation 536 nm and emission 617 nm, FITC: excitation 490 nm and emission 525 nm. Heated bacteria at 90 °C for 10 min were used as PI-positive control.
The bacterial cultures were washed with PBS, and the number of bacteria was adjusted to 10^8–10^9 cells/mL. […] Then, cells were treated with LCO dyes (pFTAA; Amytacker^TM680 or Amytacker^TM545: final concentration of 0.5 µM; Ebba Biotech, Sweden) for at least 90 min. The absorption, emission, and excitation spectra for each dye were measured based on the standard Ebbabiotec advice (ebbabiotech.com).
Text for TEM-1: Then, we performed a thermal denaturation whilst simultaneously monitoring the intrinsic fluorescence as a measure of the folding status of the molecule (Fig. 1D and Supplementary Fig. 2D) and the static light scattering as a measure of aggregation (Fig. 1E and Supplementary Fig. 2E).
D Heat denaturation of TEM-1 monitored by intrinsic fluorescence plotted as the BaryCentric Mean (BCM) of the fluorescence emission spectrum in the presence (red) and absence (blue) of tazobactam. […] E Temperature-dependent evolution of the Right-Angle Light Scattering (RALS) intensity measured simultaneously with the data in D to monitor protein aggregation. […] F Same data as in E, but showing a dose-titration of the beta-lactamase inhibitor tazobactam.

For the molecule `O=C(O)[C@H]1/C(=C/CO)O[C@@H]2CC(=O)N21` [clavulanate], at TEM-1, the “effect on aggregation of TEM-1, dose-response (in words)” value (“effect on aggregation” below) is listed as “reduce the aggregation of the enzyme in a dose-responsive manner”.
Take Ac-RGIIAALGRRPRGIIAALGRR-NH2 [TEM6.0]: the MIC peptide with E. coli strain UZ_TEM104 [1] is >0.1 mg/mL. For the same molecule, the MIC penicillin amounted to 1600 mg/mL against E. coli strain UZ_TEM104 [2] (setting [3]) and 1.6 mg/mL in the assay on E. coli strain UZ_TEM104 [2] (setting [4]).
Regarding Ac-RSVIIWSLGRRPRSVIIWSLGRR-NH2 [BGAL], the “synergy with penicillin G (in words)” value in the assay with E. coli SHV11 was “no synergy with penicillin G”. The FICi values in the assay on E. coli NDM-5b (Replicate1) worked out at 2; with E. coli NDM-5b (Replicate2) it was 1; in the assay on E. coli NDM-5b (Replicate3) it was 2; with E. coli NDM-5b (Replicate4), 2; in the assay with E. coli NDM-5b (Replicate5), 1.5; in the assay with E. coli NDM-5a (Replicate1), 2. Moreover, the FICi values amounted to 2 with E. coli NDM-5a (Replicate2); 2 in the assay on E. coli NDM-5a (Replicate3); 1.5 in the assay with E. coli NDM-5a (Replicate4); 2 with E. coli NDM-5a (Replicate5); 1 in the assay on E. coli TEM104 (TEM104, Replicate1); 1 in the assay with E. coli TEM104 (TEM104, Replicate2). The FICi values was found to be 1 with E. coli TEM104 (TEM104, Replicate3); 1 with E. coli TEM104 (TEM104, Replicate4); 1.5 in the assay on E. coli TEM104 (TEM104, Replicate5). Further, the “synergy with penicillin (in words)” value with E. coli NDM-5b and in the assay on E. coli NDM-5a was “neither showed synergy on any of the strains used” throughout. Besides, the MIC peptide with E. coli strain UZ_TEM104 [1] is > 0.1 mg/mL.
`O=C(O)C[C@@H]1CC[C@H](NC(=O)Cc2cccs2)B(O)O1` [vaborbactam]: the “effect on aggregation” value on TEM-1 is recorded as “reduce the aggregation of the enzyme in a dose-responsive manner”.
Molecule Ac-RAGWFIARRPRAGWFIARR-NH2 [TEM5.0] returned an MIC peptide in the assay with E. coli strain UZ_TEM104 [1] of 0.1 mg/mL. The MIC penicillin against E. coli strain UZ_TEM104 [2] (setting [3]) amounted to 1600 mg/mL; with E. coli strain UZ_TEM104 [2] (setting [4]) it was 1.6 mg/mL.
Taken in the same sequence, the figures for `CC(=O)N[C@@H](CCCNC(=N)N)C(=O)N[C@@H](Cc1ccccc1)C(=O)N[C@@H](Cc1ccccc1)C(=O)N[C@@H](C)C(=O)N[C@@H](C)C(=O)N[C@@H](Cc1ccccc1)C(=O)N[C@@H](CS)C(=O)N[C@@H](CC(C)C)C(=O)N[C@@H](CCCNC(=N)N)C(=O)N[C@@H](CCCNC(=N)N)C(=O)N1CCC[C@H]1C(=O)N[C@@H](CCCNC(=N)N)C(=O)N[C@@H](Cc1ccccc1)C(=O)N[C@@H](Cc1ccccc1)C(=O)N[C@@H](C)C(=O)N[C@@H](C)C(=O)N[C@@H](Cc1ccccc1)C(=O)N[C@@H](CS)C(=O)N[C@@H](CC(C)C)C(=O)N[C@@H](CCCNC(=N)N)C(=O)N[C@@H](CCCNC(=N)N)C(N)=O` [TEM1.0] (Ac-RFFAAFCLRRPRFFAAFCLRR-NH2) were >0.1 mg/mL, 1600 mg/mL (≈ 594 mM) and 1.6 mg/mL.
Regarding Ac-RLLTLASRRPRLLTLASRR-NH2 [TEM4.0], the MIC peptide against E. coli strain UZ_TEM104 [1] stood at 0.1 mg/mL. The MIC penicillin was determined as 1600 mg/mL against E. coli strain UZ_TEM104 [2] (setting [3]) and 1.6 mg/mL with E. coli strain UZ_TEM104 [2] (setting [4]).
With `NC(=O)[C@@H]1CC[C@@H]2CN1C(=O)N2OS(=O)(=O)O` [avibactam], the “effect on aggregation” value on TEM-1 is listed as “reduce the aggregation of the enzyme in a dose-responsive manner”.
As to Ac-RLAAALMLRRPRAQILNWIRR-NH2 [NDM1-2], the “synergy with penicillin (in words)” value with E. coli NDM-5b and in the assay on E. coli NDM-5a was “show synergy” in each case. For the same molecule, the FICi values in the assay with E. coli NDM-5a (Replicate1) came to 0.375; in the assay with E. coli NDM-5a (Replicate2), 0.36; in the assay with E. coli NDM-5a (Replicate3), 0.25; in the assay on E. coli NDM-5a (Replicate4) it was 0.159; in the assay on E. coli NDM-5a (Replicate5) it was 0.25; with E. coli TEM104 (TEM104, Replicate1) it was 0.75. The FICi values in the assay with E. coli TEM104 (TEM104, Replicate2) stood at 1; with E. coli TEM104 (TEM104, Replicate3), 0.5; in the assay on E. coli TEM104 (TEM104, Replicate4), 1; in the assay on E. coli TEM104 (TEM104, Replicate5), 0.72.
As for Ac-RTAQILNWRRPRTAQILNWRR-NH2 [NDM1-1], the “synergy with penicillin (in words)” value in the assay with E. coli NDM-5b and in the assay with E. coli NDM-5a was “show synergy” throughout. Moreover, the FICi values in the assay with E. coli NDM-5a (Replicate1) is listed as 0.37; with E. coli NDM-5a (Replicate2), 0.38; in the assay on E. coli NDM-5a (Replicate3) it was 0.21; in the assay with E. coli NDM-5a (Replicate4), 0.195; in the assay with E. coli NDM-5a (Replicate5) it was 0.25; in the assay on E. coli TEM104 (TEM104, Replicate1), 0.5. For the same molecule, the FICi values in the assay on E. coli TEM104 (TEM104, Replicate2) was 0.78; in the assay on E. coli TEM104 (TEM104, Replicate3), 0.72; in the assay on E. coli TEM104 (TEM104, Replicate5), 0.75.
With `CC1(C)S[C@@H]2[C@H](NC(=O)Cc3ccccc3)C(=O)N2[C@H]1C(=O)O` [penicillin G, Benzylpenicillin sodium], the “shift in pFTAA and PI channels (in words)” value with E. coli UZ_TEM104 was “no major change in either channel”. The MIC with E. coli strain UZ_TEM104 [2] (Escherichia coli, read-out: MIC penicillin) worked out at 1.6 mg/mL.
For the molecule Ac-RLTAFLHNRRPRLTAFLHNRR-NH2 [TEM3.0], the MIC peptide in the assay with E. coli strain UZ_TEM104 [1] is >0.1 mg/mL.
For the molecule Ac-RLLLTTIGRRPRLLLTTIGRR-NH2 [TEM2.0], the MIC peptide in the assay on E. coli strain UZ_TEM104 [1] is >0.1 mg/mL. Also, the MIC penicillin against E. coli strain UZ_TEM104 [2] (setting [3]) came to 800 mg/mL; in the assay with E. coli strain UZ_TEM104 [2] (setting [4]) it was 0.8 mg/mL.
Take Ac-RIVVIYTTRRPRIVVIYTTRR-NH2 [TEM7.0]: the MIC peptide in the assay with E. coli strain UZ_TEM104 [1] was >0.1 mg/mL. Moreover, the MIC penicillin is 1600 mg/mL against E. coli strain UZ_TEM104 [2] (setting [3]) and 1.6 mg/mL with E. coli strain UZ_TEM104 [2] (setting [4]).

For the origin of these results see PMC10492782, “Exploiting the aggregation propensity of beta-lactamases to design inhibitors that induce enzyme misfolding” (Nature Communications, 2023).
